Ends that are not written are not given here.
Each sequence was assayed against HLA-A*02:01 molecule (UniProt P01899+P04439, D140Y/D185E/D98H/E176V/G131W/I119V/I121R/I166T/N151K/N90K/Q86G/Q94H/R138H/R169H) (assay: cell-based). Conditions: not given.
Type: binding, human

Question: With “GILFGVFTL [FMP58-66, reference compound]” as the sequence, how does the EC50 read?
Answer: 2.3 µM

Same assay, conditions: SD

Question: AIFYLITPV [pp1a-2785] was tested. Which EC50 did it give?
Answer: 5.1 ± 1.6 µM

Question: ALLSDLQDL [pp1a-4183] was tested. Which EC50 did it give?
Answer: 42.4 ± 6.1 µM

Question: ALNLGETFV [pp1a-702] was tested. Which EC50 did it give?
Answer: 40.7 ± 2.8 µM

Question: How did the EC50 turn out when CLHVVGPNV [pp1a-1114] was run?
Answer: 62.9 ± 2.3 µM

Question: Which EC50 does the source give for CLLNRYFRL [pp1a-3798] here?
Answer: 81.6 ± 20.2 µM

Question: Which EC50 does the source give for FITESKPSV [pp1a-1214] here?
Answer: 122 ± 31.7 µM

Question: FLAHIQWMV [pp1a-3122] was tested. Which EC50 did it give?
Answer: 6.9 ± 0.4 µM

Question: How did the EC50 turn out when FLALCADSI [pp1a-685] was run?
Answer: 10.2 ± 0.5 µM

Question: FLARGIVFM [pp1a-3753] was tested. Which EC50 did it give?
Answer: 71.2 ± 12.9 µM

Question: FLGRYMSAL [pp1a-1642] was tested. Which EC50 did it give?
Answer: 124 ± 1.9 µM

Question: For FLLNKEMYL [pp1a-3183], which EC50 is on record?
Answer: 12.9 ± 6.8 µM

Question: FLNGSCGSV [pp1a-3403] was tested. Which EC50 did it give?
Answer: 18.7 ± 3.2 µM

Question: How did the EC50 turn out when FLRDGWEIV [pp1a-641] was run?
Answer: 0.9 ± 0.1 µM

Question: GLNDNLLEI [pp1a-445] was tested. Which EC50 did it give?
Answer: 6 ± 0.2 µM

Question: Which EC50 does the source give for GLVEVEKGV [pp1a-52] here?
Answer: 14.5 ± 4.9 µM

Question: IIWFLLLSV [pp1a-2230] was tested. Which EC50 did it give?
Answer: 177 ± 6.3 µM

Question: Which EC50 does the source give for ILFTRFFYV [pp1a-2332] here?
Answer: 96.5 ± 14 µM

Question: Which EC50 does the source give for ILGTVSWNL [pp1a-1367] here?
Answer: 123 ± 11.3 µM

Question: How did the EC50 turn out when ILLLDQALV [pp1a-2569] was run?
Answer: 9.6 ± 1.5 µM

Question: How did the EC50 turn out when ILTSLLVLV [pp1a-3587] was run?
Answer: 8.3 ± 0.9 µM

Question: With IVAGGIVAI [pp1a-3047] as the sequence, how does the EC50 read?
Answer: 50.5 ± 2.5 µM

Question: KLIEYTDFA [pp1a-2901] was tested. Which EC50 did it give?
Answer: 126 ± 2.5 µM

Question: KLMPVCVET [pp1a-1387] was tested. Which EC50 did it give?
Answer: 174 ± 33.5 µM

Question: Which EC50 does the source give for KLNEEIAII [pp1a-468] here?
Answer: 56.2 ± 4.8 µM

Question: Which EC50 does the source give for KLWAQCVQL [pp1a-3886] here?
Answer: 27.2 ± 9.4 µM

Question: For KTLQPVSEL [pp1a-881], which EC50 is on record?
Answer: 162 ± 28.3 µM

Question: Which EC50 does the source give for LLFLMSFTV [pp1a-3083] here?
Answer: 39.4 ± 0.9 µM

Question: LLLTILTSL [pp1a-3583] was tested. Which EC50 did it give?
Answer: 63.8 ± 3.1 µM

Question: Which EC50 does the source give for LMWLIINLV [pp1a-2364] here?
Answer: 159 ± 42.8 µM

Question: Which EC50 does the source give for MLAKALRKV [pp1a-1312] here?
Answer: 95.2 ± 0.7 µM

Question: For MLFTMLRKL [pp1a-4032], which EC50 is on record?
Answer: 166 ± 21.7 µM

Question: With NLAKHCLHV [pp1a-1109] as the sequence, how does the EC50 read?
Answer: 38.5 ± 8.2 µM

Question: For QLFFSYFAV [pp1a-2348], which EC50 is on record?
Answer: 146 ± 19.7 µM

Question: How did the EC50 turn out when QLMCQPILL [pp1a-2563] was run?
Answer: 11.1 ± 1.8 µM

Question: For QLSLPVLQV [pp1a-15], which EC50 is on record?
Answer: 79.4 ± 4.4 µM

Question: For RIMTWLDMV [pp1a-3662], which EC50 is on record?
Answer: 76.5 ± 7.1 µM

Question: For SLINTLNDL [pp1a-1433], which EC50 is on record?
Answer: 123 ± 11 µM

Question: Which EC50 does the source give for SLIYSTAAL [pp1a-2242] here?
Answer: 134 ± 7.6 µM

Question: Which EC50 does the source give for SLPGVFCGV [pp1a-3013] here?
Answer: 3.1 ± 0.2 µM

Question: With SLRVCVDTV [pp1a-1161] as the sequence, how does the EC50 read?
Answer: 85.7 ± 1.9 µM

Question: For SMQNCVLKL [pp1a-3344], which EC50 is on record?
Answer: 105 ± 2.2 µM

Question: SMWALIISV [pp1a-3732] was tested. Which EC50 did it give?
Answer: 8.9 ± 0.4 µM

Question: With TLGVLVPHV [pp1a-103] as the sequence, how does the EC50 read?
Answer: 1.3 ± 0.2 µM

Question: TLGVYDYLV [pp1a-3807] was tested. Which EC50 did it give?
Answer: 61.7 ± 8.7 µM

Question: Which EC50 does the source give for TLMNVLTLV [pp1a-3710] here?
Answer: 2 ± 0.4 µM

Question: With TLSEQLDFI [pp1a-214] as the sequence, how does the EC50 read?
Answer: 2 ± 0.2 µM

Question: How did the EC50 turn out when TVYEKLKPV [pp1a-619] was run?
Answer: 5.6 ± 0.7 µM

Question: VINGDRWFL [pp1a-3475] was tested. Which EC50 did it give?
Answer: 85 ± 5.4 µM

Question: For VLLSMQGAV [pp1a-3917], which EC50 is on record?
Answer: 112 ± 7.2 µM

Question: How did the EC50 turn out when VLLSVLQQL [pp1a-3871] was run?
Answer: 44.9 ± 6 µM

Question: How did the EC50 turn out when VLSEARQHL [pp1a-38] was run?
Answer: 76.8 ± 6.8 µM

Question: For VLVPHVGEI [pp1a-106], which EC50 is on record?
Answer: 76 ± 2 µM

Question: How did the EC50 turn out when VMAYITGGV [pp1a-597] was run?
Answer: 9.5 ± 0.9 µM

Question: With VMVELVAEL [pp1a-84] as the sequence, how does the EC50 read?
Answer: 6.8 ± 0.3 µM

Question: WLMWLIINL [pp1a-2363] was tested. Which EC50 did it give?
Answer: 103 ± 6.4 µM

Question: With WMVMFTPLV [pp1a-3128] as the sequence, how does the EC50 read?
Answer: 9.8 ± 1.1 µM

Question: For YITGGVVQL [pp1a-600], which EC50 is on record?
Answer: 48.5 ± 7.9 µM

Question: With YLASGGQPI [pp1a-4283] as the sequence, how does the EC50 read?
Answer: 39.8 ± 6.2 µM

Question: With YLATALLTL [pp1a-1675] as the sequence, how does the EC50 read?
Answer: 8.4 ± 0.2 µM

Question: Which EC50 does the source give for YLEGSVRVV [pp1a-2968] here?
Answer: 7.5 ± 0.1 µM

Question: YLNSTNVTI [pp1a-2270] was tested. Which EC50 did it give?
Answer: 8.9 ± 0.3 µM

Question: How did the EC50 turn out when YLTNDVSFL [pp1a-3115] was run?
Answer: 4.8 ± 0.3 µM

Question: YMPYFFTLL [pp1a-2168] was tested. Which EC50 did it give?
Answer: 99 ± 2.4 µM

From publication PMC8092843 (Journal of Virology, 2021)
